Assay results: US4593093A, “Acyl derivatives” (priority 1980, dated 1986)
Structures can show the parent of a compound that is named as a salt. Where two headings read alike, the source gives them in different places.

What was measured:
[1] = system: Escherichia coli; experiment: Activity in vitro: minimum inhibitory concentration; type: cell-based
[2] = system: Proteus mirabilis; experiment: as above; type: cell-based
[3] = system: Proteus morganii; experiment: as above; type: cell-based; settings: Morganella morganii
[4] = system: Proteus rettgeri; experiment: as above; type: cell-based; settings: Providencia rettgeri
[5] = system: Proteus inconstans; experiment: as above; type: cell-based; settings: Providencia alcalifaciens
[6] = system: Proteus vulgaris; experiment: as above; type: cell-based
[7] = system: Klebsiella pseumoniae; experiment: as above; type: cell-based
[8] = system: Serratia marcescens; experiment: as above; type: cell-based
[9] = system: Enterobacter cloacae; experiment: as above; type: cell-based
[10] = system: Enterobacter aerogenes; experiment: as above; type: cell-based; settings: Klebsiella aerogenes
[11] = system: Citrobacter freundii; experiment: as above; type: cell-based
[12] = system: Pseudomonas aeruginosa; experiment: as above; type: cell-based
[13] = system: Staphylococcus aureus; experiment: as above; type: cell-based
[14] = system: Staphylococcus epidermis; experiment: as above; type: cell-based
[15] = system: Streptococcus faecalis; experiment: as above; type: cell-based; settings: Enterococcus faecalis
[16] = system: Streptococcus pyogenes; experiment: as above; type: cell-based
[17] = system: Streptococcus pneumoniae; experiment: as above; type: cell-based
[18] = system: Streptococcus viridans; experiment: as above; type: cell-based
[19] = system: Enterobacter cloacae; experiment: Activity in vivo: survival of intraperitoneally infected mice; settings: sc, 96 h; mice infected i.p. with Enterobacter cloacae; s.c. twice, 1 h and 3 h after infection; survival on 4th day; read-out: CD50 (dosage at which 50% of the animals survive)
Outline: (§1)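 CD50 (mg/kg): interpolated dose protecting half the mice at day 4. Infection route i.p., aqueous suspension; treatment s.c. in physiological NaCl, 1 h + 3 h post-infection; n=5 per dose group.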

[20] = system: Escherichia coli; experiment: as above; settings: sc, 96 h; mice infected i.p. with Escherichia coli; s.c. twice, 1 h and 3 h after infection; survival on 4th day; read-out: CD50 (dosage at which 50% of the animals survive)
Outline: as §1

[21] = system: Haemophilus influenzae; experiment: as above; settings: sc, 96 h; mice infected i.p. with Haemophilus influenzae; s.c. twice, 1 h and 3 h after infection; survival on 4th day; read-out: CD50 (dosage at which 50% of the animals survive)
Outline: as §1

[22] = system: Klebsiella pneumoniae; experiment: as above; settings: sc, 96 h; mice infected i.p. with Klebsiella pneumoniae; s.c. twice, 1 h and 3 h after infection; survival on 4th day; read-out: CD50 (dosage at which 50% of the animals survive)
Outline: as §1

[23] = system: Serratia marcescens; experiment: as above; settings: sc, 96 h, 1 h and 3 h after infection, survival on 4th day, read-out: CD50 (dosage at which 50% of the animals survive)
Outline: as §1

[24] = system: Streptococcus pyogenes; experiment: as above; settings: sc, 96 h; mice infected i.p. with Streptococcus pyogenes; s.c. twice, 1 h and 3 h after infection; survival on 4th day; read-out: CD50 (dosage at which 50% of the animals survive)
Outline: as §1

[25] = system: Pseudomonas aeruginosa; experiment: as above; settings: sc, 96 h; mice infected i.p. with Pseudomonas aeruginosa; s.c. three times, 1 h, 3 h and 5 h after infection; survival on 4th day; read-out: CD50 (dosage at which 50% of the animals survive)
Outline: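 Mice (5/group) infected intraperitoneally, then given compound in physiological saline subcutaneously at 1 and 3 h post-infection (in some cases three times, at 1, 3 and 5 h). Survivors counted on day 4; CD50 (mg/kg), the dose giving 50% survival, interpolated from several dosages.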

[26] = system: Neisseria moningitidis; experiment: as above; settings: sc, 96 h; mice infected i.p. with Neisseria moningitidis; s.c. twice, 1 h and 4 h after infection; survival on 4th day; read-out: CD50 (dosage at which 50% of the animals survive)
Procedure: Groups of 5 mice are infected intraperitoneally with an aqueous suspension of various pathogens. The test substance in physiological sodium chloride solution is administered subcutaneously twice, i.e. 1 hour and 3 hours after the infection. The number of surviving animals is determined on the 4th day. Various dosages are administered and that dosage at which 50% of the experimental animals survive (CD50, mg/kg) is determined by interpolation.
**Administered subcutaneously twice: 1 hour and 4 hours after the […]

[27] = Toxicity, LD50; settings: in vivo
[28] = system: Staphylococcus aureus; experiment: Activity in vivo: survival of intraperitoneally infected mice; settings: sc, 96 h; mice infected i.p. with Staphylococcus aureus; s.c. twice, 1 h and 3 h after infection; survival on 4th day; read-out: CD50 (dosage at which 50% of the animals survive)
Outline: as §1

[29] = Enterobacter aerogenes strain 1
[30] = Enterobacter aerogenes strain 2
[31] = Pseudomonas aeruginosa strain 1
[32] = Pseudomonas aeruginosa strain 3
[33] = Streptococcus faecalis strain 1
[34] = Streptococcus faecalis strain 2
[35] = Streptococcus pyogenes strain 1, read-out: Minimum inhibitory concentration
[36] = Streptococcus pyogenes strain 2, read-out: Minimum inhibitory concentration
[37] = mice infected i.p. with Serratia marcescens strain 1, s.c. twice

## CO/N=C(\C(=O)N[C@@H]1C(=O)N2C(C(=O)O)=C(CSc3nc(=O)c(O)nn3C)CS[C@H]12)c1c[se]c(N)n1 [Product C, (6R, 7R)-7-[2-(2-amino-4-selenazolyl)-2-[(Z)-methoxyimino]-acetamido]-3-[[(2,5-dihydro-6-hydroxy-2-methyl-5-oxo-as-triazin-3-yl)thio]methyl]-8-oxo-5-thia-1-azabicyclo[4.2.0]oct-2-ene-2-carboxylic acid disodium salt]
[1]; Escherichia coli strain 1
  MIC: 0.1 µg/mL
[1]; Escherichia coli strain 2
  MIC: 0.05 µg/mL
[1]; Escherichia coli strain 3
  MIC: 0.8 µg/mL
[1]; Escherichia coli strain 4
  MIC: 0.4 µg/mL
[1]; Escherichia coli strain 5
  MIC: 0.2 µg/mL
[2]; Proteus mirabilis strain 1
  MIC: 0.012 µg/mL
[2]; Proteus mirabilis strain 2
  MIC: 0.025 µg/mL
[2]; Proteus mirabilis strain 3
  MIC: 1.6 µg/mL
[2]; Proteus mirabilis strain 4
  MIC: 0.012 µg/mL
[2]; Proteus mirabilis strain 5
  MIC: 0.012 µg/mL
[3]
  MIC: 0.05 µg/mL
[4]
  MIC: 0.1 µg/mL
[5]
  MIC: 0.006 µg/mL
[6]
  MIC: 1.6 µg/mL
[7]; Klebsiella pseumoniae strain 1
  MIC: 0.1 µg/mL
[7]; Klebsiella pseumoniae strain 2
  MIC: 0.05 µg/mL
[7]; Klebsiella pseumoniae strain 3
  MIC: 0.1 µg/mL
[8]; Serratia marcescens strain 1
  MIC: 0.4 µg/mL
[8]; Serratia marcescens strain 2
  MIC: 1.6 µg/mL
[8]; Serratia marcescens strain 3
  MIC: 0.1 µg/mL
[9]; Enterobacter cloacae strain 1
  MIC: > 100 µg/mL
[9]; Enterobacter cloacae strain 2
  MIC: 3.1 µg/mL
[9]; Enterobacter cloacae strain 3
  MIC: > 100 µg/mL
[10]; [29]
  MIC: 0.1 µg/mL
[10]; [30]
  MIC: 0.1 µg/mL
[11]; Citrobacter freundii strain 1
  MIC: 12.5 µg/mL
[11]; Citrobacter freundii strain 2
  MIC: 0.1 µg/mL
[12]; [31]
  MIC: 3.1 µg/mL
[12]; Pseudomonas aeruginosa strain 2
  MIC: 6.3 µg/mL
[12]; [32]
  MIC: 1.6 µg/mL
[13]; Staphylococcus aureus strain 1
  MIC: 3.1 µg/mL
[13]; Staphylococcus aureus strain 2
  MIC: 6.3 µg/mL
[13]; Staphylococcus aureus strain 3
  MIC: 3.1 µg/mL
[13]; Staphylococcus aureus strain 4
  MIC: 6.3 µg/mL
[14]
  MIC: 3.1 µg/mL
[15]; [33]
  MIC: > 100 µg/mL
[15]; [34]
  MIC: > 100 µg/mL
[16]; [35]
  MIC: 0.05 µg/mL
[16]; [36]
  MIC: ≤ 0.012 µg/mL
[17]
  MIC: 0.05 µg/mL
[18]
  MIC: 3.1 µg/mL
[19]
  ED50: 17 mg/kg
[20]
  ED50: < 0.003 mg/kg
[21]
  ED50: < 0.05 mg/kg
[22]
  ED50: 0.23 mg/kg
[23]; [37]
  ED50: 0.07 mg/kg
[24]
  ED50: 0.04 mg/kg
[25]
  ED50: 14 mg/kg
[26]
  ED50: < 0.05 mg/kg
[27]; po
  LD50: > 5000 mg/kg
[27]; sc
  LD50: > 4000 mg/kg

## CC1=C(C(=O)[O-])N2C(=O)[C@@H](NC(=O)/C(=N\O)c3c[se]c(N)n3)[C@H]2SC1.[Na+] [Product M, (6R, 7R)-7-[2-[2-amino-4-selenazolyl]-2-[(Z)-hydroxyimino]-acetamido]-3-methyl-8-oxo-5-thia-1-azabicyclo[4.2.0]oct-2-ene-2-carboxylic acid sodium salt]
[1]; Escherichia coli strain 1
  MIC: 0.8 µg/mL
[1]; Escherichia coli strain 2
  MIC: 0.4 µg/mL
[1]; Escherichia coli strain 3
  MIC: 50 µg/mL
[1]; Escherichia coli strain 4
  MIC: 200 µg/mL
[1]; Escherichia coli strain 5
  MIC: 3.1 µg/mL
[2]; Proteus mirabilis strain 3
  MIC: 0.8 µg/mL
[2]; Proteus mirabilis strain 4
  MIC: 6.3 µg/mL
[2]; Proteus mirabilis strain 5
  MIC: 1.6 µg/mL
[3]
  MIC: 100 µg/mL
[4]
  MIC: 0.2 µg/mL
[5]
  MIC: 0.05 µg/mL
[7]; Klebsiella pseumoniae strain 1
  MIC: 0.8 µg/mL
[7]; Klebsiella pseumoniae strain 2
  MIC: 0.4 µg/mL
[7]; Klebsiella pseumoniae strain 3
  MIC: 0.4 µg/mL
[8]; Serratia marcescens strain 1
  MIC: 25 µg/mL
[8]; Serratia marcescens strain 2
  MIC: 100 µg/mL
[8]; Serratia marcescens strain 3
  MIC: 6.3 µg/mL
[9]; Enterobacter cloacae strain 1
  MIC: > 200 µg/mL
[9]; Enterobacter cloacae strain 2
  MIC: > 200 µg/mL
[9]; Enterobacter cloacae strain 3
  MIC: > 200 µg/mL
[10]; [29]
  MIC: 0.4 µg/mL
[10]; [30]
  MIC: 1.6 µg/mL
[11]; Citrobacter freundii strain 1
  MIC: 100 µg/mL
[11]; Citrobacter freundii strain 2
  MIC: 1.6 µg/mL
[12]; [31]
  MIC: > 400 µg/mL
[12]; [32]
  MIC: > 400 µg/mL
[13]; Staphylococcus aureus strain 1
  MIC: 3.1 µg/mL
[13]; Staphylococcus aureus strain 2
  MIC: 6.3 µg/mL
[13]; Staphylococcus aureus strain 3
  MIC: 3.1 µg/mL
[13]; Staphylococcus aureus strain 4
  MIC: 6.3 µg/mL
[14]
  MIC: 3.1 µg/mL
[15]; [33]
  MIC: 200 µg/mL
[15]; [34]
  MIC: > 200 µg/mL
[16]; [35]
  MIC: 1.6 µg/mL
[16]; [36]
  MIC: 0.1 µg/mL
[17]
  MIC: 6.3 µg/mL
[18]
  MIC: 25 µg/mL
[20]
  ED50: 1 mg/kg
[23]; [37]
  ED50: 3.5 mg/kg
[23]; mice infected i.p. with Serratia marcescens strain 2, s.c. twice
  ED50: > 50 mg/kg
[28]
  ED50: 2.7 mg/kg
[24]
  ED50: 0.28 mg/kg

## CO/N=C(\C(=O)N[C@@H]1C(=O)N2C(C(=O)OCOC(=O)C(C)(C)C)=C(C)CS[C@H]12)c1c[se]c(N)n1 [Product H, Methylene (6R, 7R)-7-[2-(2-amino-4-selenazolyl)-2-[(Z)-methoxyimino]-acetamido]-3-methyl-8-oxo-5-thia-1-azabicyclo[4.2.0]oct-2-ene-2-carboxylate pivalate]
[20]
  ED50: 0.11 mg/kg
[22]
  ED50: 0.44 mg/kg
[28]
  ED50: > 12 mg/kg
[24]
  ED50: 0.13 mg/kg
[25]
  ED50: > 100 mg/kg
[27]; po
  LD50: > 5000 mg/kg
